# Results published in ChEMBL document CHEMBL4819125, “Synthesis and anti-proliferation activity of mogrol derivatives bearing quinoline and triazole moieties” (Bioorg Med Chem Lett, 2021).
# Columns and labels:
# A549 [1] = assay: Antiproliferative activity against human A549 cells assessed as reduction in cell growth at 30 uM by CCK8 assay relative to control; format: functional
# A549 [2] = assay: Antiproliferative activity against human A549 cells assessed as reduction in cell growth by CCK8 assay; format: functional, cell-based
# NCI-H460 [3] = assay: Antiproliferative activity against human NCI-H460 cells assessed as reduction in cell growth by CCK8 assay; format: functional, cell-based
# NCI-H460 [4] = assay: Antiproliferative activity against human NCI-H460 cells assessed as reduction in cell growth at 30 uM by CCK8 assay relative to control; format: functional
SMILES,inhibition at 30 µM (A549 [1]) [%],IC50 (A549 [2]) [µM],IC50 (NCI-H460 [3]) [µM],inhibition at 30 µM (NCI-H460 [4]) [%]
C[C@H](CC[C@@H](O)C(C)(C)O)[C@H]1CC[C@@]2(C)[C@@H]3CC=C4[C@@H](Cc5cc6ccccc6nc5C4(C)C)[C@]3(C)C(=O)C[C@]12C,94.3,13.8,17.1,80.2
C[C@H](CC[C@@H](O)C(C)(C)O)[C@H]1CC[C@@]2(C)[C@@H]3CC=C4[C@@H](CC[C@H](O)C4(C)C)[C@]3(C)[C@H](OC(=O)Cn3cc(-c4ccccc4)nn3)C[C@]12C,83,6.75,,44.9
C[C@H](CCCOC(=O)Cn1cc(-c2ccccc2)nn1)[C@H]1CC[C@@]2(C)[C@@H]3CC=C4[C@@H](CC[C@H](O)C4(C)C)[C@]3(C)[C@H](O)C[C@]12C,87.9,22.5,,7.56
C[C@H](CC[C@@H](O)C(C)(C)O)[C@H]1CC[C@@]2(C)[C@@H]3CC=C4[C@@H](CC[C@H](O)C4(C)C)[C@]3(C)[C@H](OC(=O)Cn3cc(-c4ccsc4)nn3)C[C@]12C,90.5,6.27,,44.9
C[C@H](Cc1cnc2ccc(Br)cc2c1)[C@H]1CC[C@@]2(C)[C@@H]3CC=C4[C@@H](CC[C@H](O)C4(C)C)[C@]3(C)[C@H](O)C[C@]12C,53.3,,,-12.4
C[C@H](CC[C@@H](O)C(C)(C)O)[C@H]1CC[C@@]2(C)[C@@H]3CC=C4[C@@H](CC[C@H](O)C4(C)C)[C@]3(C)[C@H](O)C[C@]12C [MOGROL],62.9,27.8,> 100,-13.2
C[C@H](CC[C@@H](O)C(C)(C)O)[C@H]1CC[C@@]2(C)[C@@H]3CC=C4[C@@H](CC[C@H](O)C4(C)C)[C@]3(C)[C@H](OC(=O)Cn3cc(-c4ccc(C#N)cc4)nn3)C[C@]12C,76.7,5.79,,20.5
C[C@H](Cc1cnc2cc(Cl)ccc2c1)[C@H]1CC[C@@]2(C)[C@@H]3CC=C4[C@@H](CC[C@H](O)C4(C)C)[C@]3(C)[C@H](O)C[C@]12C,17.4,,,-1.18
C[C@H](Cc1cnc2ccccc2c1)[C@H]1CC[C@@]2(C)[C@@H]3CC=C4[C@@H](CC[C@H](O)C4(C)C)[C@]3(C)[C@H](O)C[C@]12C,91.5,19.2,24.6,69.9
C[C@H](CCCOC(=O)Cn1cc(-c2ccsc2)nn1)[C@H]1CC[C@@]2(C)[C@@H]3CC=C4[C@@H](CC[C@H](O)C4(C)C)[C@]3(C)[C@H](O)C[C@]12C,90.5,26.1,,8.3
C[C@H](CCCOC(=O)Cn1cc(C2CC2)nn1)[C@H]1CC[C@@]2(C)[C@@H]3CC=C4[C@@H](CC[C@H](O)C4(C)C)[C@]3(C)[C@H](O)C[C@]12C,89.2,17.7,,6.43
C[C@H](CC[C@@H](O)C(C)(C)O)[C@H]1CC[C@@]2(C)[C@@H]3CC=C4[C@@H](Cc5cc6ccc(Br)cc6nc5C4(C)C)[C@]3(C)C(=O)C[C@]12C,22,,,1.65
Cc1ccc(-c2cn(CC(=O)OCCC[C@@H](C)[C@H]3CC[C@@]4(C)[C@@H]5CC=C6[C@@H](CC[C@H](O)C6(C)C)[C@]5(C)[C@H](O)C[C@]34C)nn2)cc1,88.4,23.8,,10.9
C[C@H](CC[C@@H](O)C(C)(C)O)[C@H]1CC[C@@]2(C)[C@@H]3CC=C4[C@@H](CC[C@H](O)C4(C)C)[C@]3(C)[C@H](OC(=O)Cn3cc(C4CC4)nn3)C[C@]12C,92.9,19.8,,34.7
O=c1[nH]cc(F)c(=O)[nH]1 [FLUOROURACIL],,1.65,7.03,
C[C@H](CC[C@@H](O)C(C)(C)O)[C@H]1CC[C@@]2(C)[C@@H]3CC=C4[C@@H](Cc5cc6cc(Cl)ccc6nc5C4(C)C)[C@]3(C)C(=O)C[C@]12C,84.1,12.9,,13.1
C[C@H](Cc1cnc2cnccc2c1)[C@H]1CC[C@@]2(C)[C@@H]3CC=C4[C@@H](CC[C@H](O)C4(C)C)[C@]3(C)[C@H](O)C[C@]12C,90.2,18.2,,25.8
C[C@H](CC[C@@H](O)C(C)(C)O)[C@H]1CC[C@@]2(C)[C@@H]3CC=C4[C@@H](Cc5cc6ccc(Cl)cc6nc5C4(C)C)[C@]3(C)C(=O)C[C@]12C,6.68,,,2.18
C[C@H](CC[C@@H](O)C(C)(C)O)[C@H]1CC[C@@]2(C)[C@@H]3CC=C4[C@@H](Cc5cc6ccncc6nc5C4(C)C)[C@]3(C)C(=O)C[C@]12C,95.2,14.3,18.3,81.1
C[C@H](Cc1cnc2cc(Br)ccc2c1)[C@H]1CC[C@@]2(C)[C@@H]3CC=C4[C@@H](CC[C@H](O)C4(C)C)[C@]3(C)[C@H](O)C[C@]12C,42.7,,,0.71
C[C@H](Cc1cnc2ccc(Cl)cc2c1)[C@H]1CC[C@@]2(C)[C@@H]3CC=C4[C@@H](CC[C@H](O)C4(C)C)[C@]3(C)[C@H](O)C[C@]12C,10.6,,,-12.6
C[C@H](CC[C@@H](O)C(C)(C)O)[C@H]1CC[C@@]2(C)[C@@H]3CC=C4[C@@H](Cc5cc6cc(Br)ccc6nc5C4(C)C)[C@]3(C)C(=O)C[C@]12C,69.4,13.1,,17
Cc1ccc(-c2cn(CC(=O)O[C@@H]3C[C@]4(C)[C@@H]([C@H](C)CC[C@@H](O)C(C)(C)O)CC[C@@]4(C)[C@@H]4CC=C5[C@@H](CC[C@H](O)C5(C)C)[C@@]43C)nn2)cc1,77.3,5.96,,40
